In PubChem BioAssay (NCI):
Where “and” joins values, the source holds several entries; their conditions need not be identical. Equal values may be shown once.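 Values below derive from 48-hour exposures of cells grown in 96-well plates, with endpoints linearly interpolated between the two concentrations bracketing the appropriate inhibition level. The concentration for 50% growth inhibition is given as GI50. Definition used: TGI = concentration required for complete inhibition of growth.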

Key:
Assay in all cases: DTP human tumour cell line panel, 48 h
LOX IMVI melanoma = tested on: LOX IMVI melanoma
MALME-3M melanoma = tested on: MALME-3M melanoma
SR leukemia = tested on: SR leukemia
MOLT-4 leukemia = tested on: MOLT-4 leukemia
SNB-75 CNS = tested on: SNB-75 CNS
HOP-62 NSCLC = tested on: HOP-62 NSCLC
OVCAR-8 ovarian = tested on: OVCAR-8 ovarian
SF-268 CNS = tested on: SF-268 CNS
M14 melanoma = tested on: M14 melanoma
SF-295 CNS = tested on: SF-295 CNS
786-0 renal = tested on: 786-0 renal
NCI/ADR-RES ovarian = tested on: NCI/ADR-RES ovarian
CAKI-1 renal = tested on: CAKI-1 renal
MDA-MB-435 = tested on: MDA-MB-435
BT-549 breast = tested on: BT-549 breast
NCI-H226 lung = tested on: NCI-H226 lung
SK-MEL-28 melanoma = tested on: SK-MEL-28 melanoma
HS 578T breast = tested on: HS 578T breast
COLO 205 colon = tested on: COLO 205 colon
NCI-H460 lung = tested on: NCI-H460 lung
T-47D breast = tested on: T-47D breast
OVCAR-5 ovarian = tested on: OVCAR-5 ovarian
RXF 393 renal = tested on: RXF 393 renal
SK-OV-3 ovarian = tested on: SK-OV-3 ovarian
U251 CNS = tested on: U251 CNS
OVCAR-3 ovarian = tested on: OVCAR-3 ovarian
PC-3 prostate = tested on: PC-3 prostate
SF-539 CNS = tested on: SF-539 CNS
MCF7 breast = tested on: MCF7 breast
UACC-62 melanoma = tested on: UACC-62 melanoma
TK-10 renal = tested on: TK-10 renal
OVCAR-4 ovarian = tested on: OVCAR-4 ovarian
K-562 leukemia = tested on: K-562 leukemia
CCRF-CEM leukemia = tested on: CCRF-CEM leukemia
RPMI-8226 leukemia = tested on: RPMI-8226 leukemia
SK-MEL-5 melanoma = tested on: SK-MEL-5 melanoma
UO-31 renal = tested on: UO-31 renal
UACC-257 melanoma = tested on: UACC-257 melanoma
HL-60(TB) leukemia = tested on: HL-60(TB) leukemia
A549 NSCLC = tested on: A549 NSCLC
HT29 colon = tested on: HT29 colon
EKVX NSCLC = tested on: EKVX NSCLC
NCI-H23 lung = tested on: NCI-H23 lung
MDA-N = tested on: MDA-N
SNB-19 CNS = tested on: SNB-19 CNS
NCI-H522 lung = tested on: NCI-H522 lung
SK-MEL-2 melanoma = tested on: SK-MEL-2 melanoma
A498 renal = tested on: A498 renal
MDA-MB-231 breast = tested on: MDA-MB-231 breast
HCT-15 colon = tested on: HCT-15 colon
HCC-2998 colon = tested on: HCC-2998 colon
ACHN renal = tested on: ACHN renal
KM12 colon = tested on: KM12 colon
SN12C renal = tested on: SN12C renal
SW-620 colon = tested on: SW-620 colon
DU-145 prostate = tested on: DU-145 prostate
HOP-92 NSCLC = tested on: HOP-92 NSCLC
HCT-116 colon = tested on: HCT-116 colon

Which results are given for `Nc1ccn(C2OC(CO)C(O)C2(F)F)c(=O)n1` (stereo not drawn)?
GI50 (LOX IMVI melanoma): 28.5 nM; TGI (LOX IMVI melanoma): > 100000 nM; GI50 (MALME-3M melanoma): 88.3 nM; GI50 (SR leukemia): 57.9 nM; GI50 (MOLT-4 leukemia): 44.1 nM; GI50 (SNB-75 CNS): 247 nM and 25.8 nM and 30.6 nM; TGI (SNB-75 CNS): 944 nM; GI50 (HOP-62 NSCLC): 25.5 nM; TGI (HOP-62 NSCLC): 805 nM and 3160 nM; GI50 (OVCAR-8 ovarian): 12.2 nM; TGI (OVCAR-8 ovarian): 1020 nM; GI50 (SF-268 CNS): 37.8 nM; GI50 (M14 melanoma): 6.39 nM; TGI (M14 melanoma): 148 nM and 24.9 nM; GI50 (SF-295 CNS): 38.9 nM; TGI (SF-295 CNS): 21.6 nM; GI50 (786-0 renal): 3.9 nM; GI50 (NCI/ADR-RES ovarian): 14.4 nM; GI50 (CAKI-1 renal): 9.25 nM; TGI (CAKI-1 renal): 2550 nM and 21400 nM; GI50 (MDA-MB-435): 18.9 nM; TGI (MDA-MB-435): > 100000 nM; GI50 (BT-549 breast): 74.4 nM and 17.8 nM; TGI (BT-549 breast): > 100000 nM; GI50 (NCI-H226 lung): 146 nM and 95 nM; TGI (NCI-H226 lung): > 100000 nM; TGI (SK-MEL-28 melanoma): > 100000 nM; GI50 (HS 578T breast): > 100000 nM; TGI (HS 578T breast): > 100000 nM; GI50 (COLO 205 colon): 568 nM; TGI (COLO 205 colon): > 100000 nM; GI50 (NCI-H460 lung): 6.51 nM; GI50 (T-47D breast): 1010 nM and 1390 nM; GI50 (OVCAR-5 ovarian): 182 nM; TGI (OVCAR-5 ovarian): > 100000 nM; GI50 (RXF 393 renal): 36.3 nM; GI50 (SK-OV-3 ovarian): 215 nM and 307 nM; TGI (SK-OV-3 ovarian): > 100000 nM; GI50 (U251 CNS): 22.1 nM; TGI (U251 CNS): > 100000 nM; GI50 (OVCAR-3 ovarian): 3620 nM; TGI (OVCAR-3 ovarian): > 100000 nM; TGI (PC-3 prostate): > 100000 nM; GI50 (SF-539 CNS): 16.7 nM; TGI (SF-539 CNS): 553 nM and 63.3 nM; GI50 (MCF7 breast): 5.52 nM; TGI (MCF7 breast): > 100000 nM; GI50 (UACC-62 melanoma): 38.3 nM; GI50 (TK-10 renal): > 100000 nM; TGI (TK-10 renal): > 100000 nM; GI50 (OVCAR-4 ovarian): > 100000 nM; TGI (OVCAR-4 ovarian): > 100000 nM; GI50 (K-562 leukemia): 82.4 nM; GI50 (CCRF-CEM leukemia): 61.4 nM and 26.8 nM; GI50 (RPMI-8226 leukemia): 561 nM; TGI (RPMI-8226 leukemia): > 100000 nM; GI50 (SK-MEL-5 melanoma): 39.2 nM; TGI (SK-MEL-5 melanoma): > 100000 nM; GI50 (UO-31 renal): 17.5 nM; TGI (UO-31 renal): 685 nM and 433 nM and 327 nM; TGI (UACC-257 melanoma): > 100000 nM; GI50 (HL-60(TB) leukemia): 28.6 nM; TGI (HL-60(TB) leukemia): 220 nM; GI50 (A549 NSCLC): 15.8 nM; TGI (A549 NSCLC): > 100000 nM; TGI (HT29 colon): > 100000 nM; TGI (EKVX NSCLC): > 100000 nM; GI50 (NCI-H23 lung): 7.88 nM; GI50 (MDA-N): 64.7 nM; TGI (MDA-N): > 100000 nM; GI50 (SNB-19 CNS): 13.1 nM; TGI (SNB-19 CNS): 70100 nM; GI50 (NCI-H522 lung): 1350 nM; TGI (SK-MEL-2 melanoma): > 100000 nM; GI50 (A498 renal): 54.8 nM; GI50 (MDA-MB-231 breast): 7260 nM and 924 nM; TGI (MDA-MB-231 breast): > 100000 nM; GI50 (HCT-15 colon): 2200 nM; TGI (HCT-15 colon): > 100000 nM; GI50 (HCC-2998 colon): 940 nM; TGI (HCC-2998 colon): > 100000 nM; GI50 (ACHN renal): 25.2 nM and 3.79 nM; TGI (ACHN renal): 3480 nM; GI50 (KM12 colon): 2840 nM; TGI (KM12 colon): > 100000 nM; GI50 (SN12C renal): 39.1 nM; TGI (SN12C renal): 946 nM and 1110 nM; GI50 (SW-620 colon): 342 nM and 325 nM; TGI (SW-620 colon): > 100000 nM; GI50 (DU-145 prostate): 27.4 nM; GI50 (HOP-92 NSCLC): 223 nM; GI50 (HCT-116 colon): 7.46 nM; TGI (HCT-116 colon): > 100000 nM
